Calls of active or inactive are those of the source. No rule for the calls is given here.
Molecular target: Metabotropic glutamate receptor 1 (Homo sapiens) (UniProt Q13255)
Test: off-target activity check on mGlu1 receptor – cell-based, calcium fluorescence, agonist curve fold shift, selectivity assay for mGlu8/mGlu7 PAM project, profiling panel (AID 743429)
Settings: mGlu1 cells, Fluo-4 calcium flux, at 10 µM

Sequence of Metabotropic glutamate receptor 1 (Homo sapiens) (Q13255 whole entry, looked up): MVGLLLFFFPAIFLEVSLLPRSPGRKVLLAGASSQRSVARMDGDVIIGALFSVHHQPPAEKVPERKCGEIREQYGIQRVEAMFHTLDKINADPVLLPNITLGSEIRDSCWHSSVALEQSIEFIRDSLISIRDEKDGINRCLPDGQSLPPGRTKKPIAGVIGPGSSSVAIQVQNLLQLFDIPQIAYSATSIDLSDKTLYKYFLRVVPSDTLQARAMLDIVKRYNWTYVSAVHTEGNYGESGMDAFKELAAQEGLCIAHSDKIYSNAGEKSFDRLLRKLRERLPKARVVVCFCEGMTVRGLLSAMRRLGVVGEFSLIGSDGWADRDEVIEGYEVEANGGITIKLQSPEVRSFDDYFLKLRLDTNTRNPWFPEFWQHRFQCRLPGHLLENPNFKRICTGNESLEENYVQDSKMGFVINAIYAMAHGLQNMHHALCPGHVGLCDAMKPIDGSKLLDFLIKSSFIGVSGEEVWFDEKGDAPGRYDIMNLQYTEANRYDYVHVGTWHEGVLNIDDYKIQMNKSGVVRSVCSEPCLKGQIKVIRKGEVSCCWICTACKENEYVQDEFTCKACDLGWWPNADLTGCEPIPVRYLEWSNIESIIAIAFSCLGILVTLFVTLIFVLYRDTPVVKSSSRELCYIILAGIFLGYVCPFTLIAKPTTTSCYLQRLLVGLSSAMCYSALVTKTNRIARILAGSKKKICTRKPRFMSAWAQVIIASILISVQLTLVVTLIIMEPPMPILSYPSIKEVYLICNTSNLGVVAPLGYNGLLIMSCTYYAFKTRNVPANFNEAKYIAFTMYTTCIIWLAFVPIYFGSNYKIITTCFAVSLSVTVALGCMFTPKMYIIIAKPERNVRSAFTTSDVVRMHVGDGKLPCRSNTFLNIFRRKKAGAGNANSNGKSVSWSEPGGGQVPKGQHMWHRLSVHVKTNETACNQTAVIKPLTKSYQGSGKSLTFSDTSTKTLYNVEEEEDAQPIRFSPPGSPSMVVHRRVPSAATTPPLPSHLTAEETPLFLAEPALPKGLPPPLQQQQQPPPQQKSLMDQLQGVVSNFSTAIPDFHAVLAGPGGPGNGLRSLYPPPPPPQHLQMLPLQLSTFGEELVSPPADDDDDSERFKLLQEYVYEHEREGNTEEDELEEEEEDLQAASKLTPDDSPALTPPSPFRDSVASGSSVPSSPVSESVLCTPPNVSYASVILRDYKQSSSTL

With COC(=O)c1ccc(-n2c(C)cc(C(=O)CSc3ccc(NC(C)=O)cc3)c2C)cc1 the fold shift was 1.04 (inactive).
